Experimental findings from ChEMBL document CHEMBL4028802, “DILIrank: the largest reference drug list ranked by the risk for developing drug-induced liver injury in humans” (Drug Discov Today, 2016) are described below.

Data set [1] is filed under the species Homo sapiens. The data set can be described thus: Liver toxicity in human assessed as induction of drug-induced liver injury by measuring severity class index.
Data set [2] is filed under the species Homo sapiens. The data set can be described thus: Liver toxicity in human assessed as induction of drug-induced liver injury by measuring verified drug-induced liver injury concern status.
For DILI severity class in this document: key of the grades not given here.

On to `C=CCC1(C(C)CCC)C(=O)NC(=O)NC1=O` (stereo unspecified) [SECOBARBITAL], for which the DILI_severity_class in the data set filed under Homo sapiens [1] stood at 3. Also, in the data set listed under Homo sapiens [2], the DILI_Concern result is given as “Ambiguous-Dili-Concern”.
`C#CCN(C)[C@H](C)Cc1ccccc1` [SELEGILINE]: in the data set listed under Homo sapiens [1], the DILI_severity_class was found to be 0. Further, the DILI_Concern result in the data set listed under Homo sapiens [2] is on record as “No-Dili-Concern”.
In the same order, the values of `CN[C@H]1CC[C@@H](c2ccc(Cl)c(Cl)c2)c2ccccc21` [SERTRALINE] are 3 and “Less-Dili-Concern”.
In the same order, the values of `CC(C)CC(N(C)C)C1(c2ccc(Cl)cc2)CCC1` (stereo unspecified) [SIBUTRAMINE] are 4 and “Less-Dili-Concern”.
As for `C[C@H](Cc1cc2c(c(C(N)=O)c1)N(CCCO)CC2)NCCOc1ccccc1OCC(F)(F)F` [SILODOSIN], the DILI_severity_class in the data set filed under Homo sapiens [1] was 3. In the data set listed under Homo sapiens [2], the DILI_Concern entry is “Ambiguous-Dili-Concern”.
In the same order, the values of `CSCC[C@H](NC(=O)[C@H](Cc1ccc(OS(=O)(=O)O)cc1)NC(=O)[C@@H](N)CC(=O)O)C(=O)NCC(=O)N[C@@H](Cc1c[nH]c2ccccc12)C(=O)N[C@@H](CCSC)C(=O)N[C@@H](CC(=O)O)C(=O)N[C@@H](Cc1ccccc1)C(N)=O` [SINCALIDE] are 0 and “No-Dili-Concern”.
The like results for `CO[C@H]1C[C@@H]2CC[C@@H](C)[C@@](O)(O2)C(=O)C(=O)N2CCCC[C@H]2C(=O)O[C@H]([C@H](C)C[C@@H]2CC[C@@H](O)[C@H](OC)C2)CC(=O)[C@H](C)/C=C(\C)[C@@H](O)[C@@H](OC)C(=O)[C@H](C)C[C@H](C)/C=C/C=C/C=C/1C` [SIROLIMUS] were, in that order, 8 and “Less-Dili-Concern”.
In the same order, the values of `N[C@@H](CC(=O)N1CCn2c(nnc2C(F)(F)F)C1)Cc1cc(F)c(F)cc1F` [SITAGLIPTIN] are 4 and “Less-Dili-Concern”.
For the compound `Cc1cc2c(cc1CC(=O)c1sccc1S(=O)(=O)Nc1onc(C)c1Cl)OCO2` [SITAXENTAN], in the data set listed under Homo sapiens [1], the DILI_severity_class is 8. Further, in the data set filed under Homo sapiens [2], the DILI_Concern entry is on record as “Most-Dili-Concern”.
`O=C([O-])O.[Na+]` [SODIUM BICARBONATE]: the DILI_severity_class in the data set listed under Homo sapiens [1] was 0. Moreover, in the data set listed under Homo sapiens [2], the DILI_Concern result is “No-Dili-Concern”.
In the same order, the values of `CC(O)C(=O)[O-].[Na+]` (stereo unspecified) [SODIUM LACTATE] are 0 and “No-Dili-Concern”.
As to `O=C(O[C@H]1CN2CCC1CC2)N1CCc2ccccc2[C@@H]1c1ccccc1` [SOLIFENACIN], in the data set listed under Homo sapiens [1], the DILI_severity_class came to 3. For the same compound, in the data set filed under Homo sapiens [2], the DILI_Concern result was “Ambiguous-Dili-Concern”.
The like results for `CNC(=O)c1cc(Oc2ccc(NC(=O)Nc3ccc(Cl)c(C(F)(F)F)c3)cc2)ccn1` [SORAFENIB] were, in that order, 8 and “Most-Dili-Concern”.
Consider `OC[C@@H](O)[C@@H](O)[C@H](O)[C@@H](O)CO` [SORBITOL], for which the DILI_severity_class in the data set filed under Homo sapiens [1] is reported as 0. Moreover, the DILI_Concern entry in the data set listed under Homo sapiens [2] is reported as “No-Dili-Concern”.
The like results for `CC(C)NCC(O)c1ccc(NS(C)(=O)=O)cc1` (stereo unspecified) [SOTALOL] were, in that order, 3 and “Ambiguous-Dili-Concern”.
In the same order, the values of `CN[C@@H]1[C@H](O)[C@H](NC)[C@H]2O[C@@]3(O)C(=O)C[C@@H](C)O[C@H]3O[C@@H]2[C@H]1O` [SPECTINOMYCIN] are 3 and “Ambiguous-Dili-Concern”.
The like results for `CC(=O)S[C@@H]1CC2=CC(=O)CC[C@]2(C)[C@H]2CC[C@@]3(C)[C@@H](CC[C@@]34CCC(=O)O4)[C@H]12` [SPIRONOLACTONE] were, in that order, 2 and “Less-Dili-Concern”.
Turning to `Cc1cn([C@H]2C=C[C@@H](CO)O2)c(=O)[nH]c1=O` [STAVUDINE], the DILI_severity_class in the data set filed under Homo sapiens [1] stood at 8. Also, the DILI_Concern entry in the data set listed under Homo sapiens [2] was “Most-Dili-Concern”.
The like results for `[H]/N=C(/N)N[C@H]1[C@H](O)[C@@H](O)[C@H](O[C@@H]2O[C@@H](C)[C@](O)(C=O)[C@H]2O[C@@H]2O[C@@H](CO)[C@H](O)[C@@H](O)[C@@H]2NC)[C@@H](N/C(N)=N\[H])[C@@H]1O` [STREPTOMYCIN] were, in that order, 0 and “No-Dili-Concern”.
In the same order, the values of `CN(N=O)C(=O)N[C@@H](C=O)[C@@H](O)[C@H](O)[C@H](O)CO` [STREPTOZOCIN] are 3 and “Ambiguous-Dili-Concern”.
The like results for `NC(=O)NS(=O)(=O)c1ccc(N)cc1` [SULFACARBAMIDE] were, in that order, 8 and “Most-Dili-Concern”.
As for `Nc1ccc(S(=O)(=O)Nc2ncccn2)cc1` [SULFADIAZINE], in the data set listed under Homo sapiens [1], the DILI_severity_class came out at 3. In addition, the DILI_Concern result in the data set filed under Homo sapiens [2] is on record as “Less-Dili-Concern”.
The like results for `Cc1nnc(NS(=O)(=O)c2ccc(N)cc2)s1` [SULFAMETHIZOLE] were, in that order, 0 and “Less-Dili-Concern”.
The like results for `O=C(O)c1cc(/N=N/c2ccc(S(=O)(=O)Nc3ccccn3)cc2)ccc1O` [SULFASALAZINE] were, in that order, 5 and “Most-Dili-Concern”.
The like results for `Nc1ccc(S(=O)(=O)Nc2nccs2)cc1` [SULFATHIAZOLE] were, in that order, 8 and “Most-Dili-Concern”.
On to `CCCCCCCCNC(C)C(O)c1ccc(SC(C)C)cc1` (stereo unspecified) [SULOCTIDIL], for which the DILI_severity_class in the data set filed under Homo sapiens [1] is recorded as 8. In addition, in the data set listed under Homo sapiens [2], the DILI_Concern entry was “Most-Dili-Concern”.
In the same order, the values of `CCN(CC)CCNC(=O)c1c(C)[nH]c(/C=C2\C(=O)Nc3ccc(F)cc32)c1C` [SUNITINIB] are 8 and “Most-Dili-Concern”.
In the same order, the values of `C[N+](C)(C)CCOC(=O)CCC(=O)OCC[N+](C)(C)C` [SUXAMETHONIUM] are 0 and “No-Dili-Concern”.
The like results for `C=CC[C@@H]1/C=C(\C)C[C@H](C)C[C@H](OC)[C@H]2O[C@@](O)(C(=O)C(=O)N3CCCC[C@H]3C(=O)O[C@H](/C(C)=C/[C@@H]3CC[C@@H](O)[C@H](OC)C3)[C@H](C)[C@@H](O)CC1=O)[C@H](C)C[C@@H]2OC` [TACROLIMUS ANHYDROUS] were, in that order, 5 and “Less-Dili-Concern”.
Consider `CCOc1ccccc1OCCN[C@H](C)Cc1ccc(OC)c(S(N)(=O)=O)c1` [TAMSULOSIN], for which the DILI_severity_class in the data set filed under Homo sapiens [1] is recorded as 0. Moreover, the DILI_Concern result in the data set listed under Homo sapiens [2] is on record as “Less-Dili-Concern”.
In the same order, the values of `CC[C@@H](c1cccc(O)c1)[C@@H](C)CN(C)C` [TAPENTADOL] are 0 and “No-Dili-Concern”.
In the same order, the values of `Cc1nc(C)c2c(n1)N(Cc1ccc(-c3ccccc3-c3nnn[nH]3)cc1)C(=O)CC2` [TASOSARTAN] are 8 and “Most-Dili-Concern”.
In the same order, the values of `CCCCCNC(=N)N/N=C/c1c[nH]c2ccc(OC)cc12` [TEGASEROD] are 3 and “Ambiguous-Dili-Concern”.
In the case of `Cc1cn([C@@H]2C[C@@H](O)[C@H](CO)O2)c(=O)[nH]c1=O` [TELBIVUDINE], the DILI_severity_class in the data set filed under Homo sapiens [1] is listed as 2. In addition, in the data set filed under Homo sapiens [2], the DILI_Concern entry is “Ambiguous-Dili-Concern”.
For `CC[C@H]1OC(=O)[C@H](C)C(=O)[C@H](C)[C@@H](O[C@@H]2O[C@H](C)C[C@H](N(C)C)[C@H]2O)[C@](C)(OC)C[C@@H](C)C(=O)[C@H](C)[C@H]2N(CCCCn3cnc(-c4cccnc4)c3)C(=O)O[C@]12C` [TELITHROMYCIN], the DILI_severity_class in the data set filed under Homo sapiens [1] was 8. Further, in the data set listed under Homo sapiens [2], the DILI_Concern result was “Most-Dili-Concern”.
The like results for `CN1C(=O)C(O)N=C(c2ccccc2)c2cc(Cl)ccc21` (stereo unspecified) [TEMAZEPAM] were, in that order, 3 and “Ambiguous-Dili-Concern”.
In the same order, the values of `Cn1nnc2c(C(N)=O)ncn2c1=O` [TEMOZOLOMIDE] are 4 and “Less-Dili-Concern”.
In the same order, the values of `CO[C@H]1C[C@@H]2CC[C@@H](C)[C@@](O)(O2)C(=O)C(=O)N2CCCC[C@H]2C(=O)O[C@H]([C@H](C)C[C@@H]2CC[C@@H](OC(=O)C(C)(CO)CO)[C@H](OC)C2)CC(=O)[C@H](C)/C=C(\C)[C@@H](O)[C@@H](OC)C(=O)[C@H](C)C[C@H](C)/C=C/C=C/C=C/1C` [TEMSIROLIMUS] are 0 and “No-Dili-Concern”.
On to `COc1cc([C@@H]2c3cc4c(cc3[C@@H](O[C@@H]3O[C@@H]5CO[C@@H](c6cccs6)O[C@H]5[C@H](O)[C@H]3O)[C@H]3COC(=O)[C@H]23)OCO4)cc(OC)c1O` [TENIPOSIDE], for which, in the data set filed under Homo sapiens [1], the DILI_severity_class is 3. The DILI_Concern result in the data set filed under Homo sapiens [2] was “Less-Dili-Concern”.
In the same order, the values of `C[C@H](Cn1cnc2c(N)ncnc21)OCP(=O)(O)O` [TENOFOVIR ANHYDROUS] are 3 and “Less-Dili-Concern”.
As to `COc1cc2nc(N3CCN(C(=O)C4CCCO4)CC3)nc(N)c2cc1OC` (stereo unspecified) [TERAZOSIN], in the data set filed under Homo sapiens [1], the DILI_severity_class was 0. For the same compound, in the data set filed under Homo sapiens [2], the DILI_Concern result is recorded as “No-Dili-Concern”.
Regarding `CN(C/C=C/C#CC(C)(C)C)Cc1cccc2ccccc12` [TERBINAFINE], the DILI_severity_class in the data set filed under Homo sapiens [1] came to 8. The DILI_Concern entry in the data set listed under Homo sapiens [2] is listed as “Most-Dili-Concern”.
For the compound `CC(C)(C)NCC(O)c1cc(O)cc(O)c1` (stereo unspecified) [TERBUTALINE], the DILI_severity_class in the data set filed under Homo sapiens [1] is 3. Also, in the data set listed under Homo sapiens [2], the DILI_Concern result is reported as “Less-Dili-Concern”.
